Several values for one entry are separate records, joined by “and”; a condition that tells them apart may be missing. Equal values may be shown once.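 1) Cells in 96-well plates. 2) Compound, 48 h, 5 concentrations. 3) Linear interpolation between surrounding doses. 4) Unreached endpoint = highest concentration. GI50 is the concentration that inhibits growth by half. Definition used: TGI = concentration required for complete inhibition of growth.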
Key:
Assay in all cases: DTP human tumour cell line panel, 48 h
786-0 renal = test system: 786-0 renal
CCRF-CEM leukemia = test system: CCRF-CEM leukemia
HCT-15 colon = test system: HCT-15 colon
LOX IMVI melanoma = test system: LOX IMVI melanoma
NCI-H460 lung = test system: NCI-H460 lung
OVCAR-3 ovarian = test system: OVCAR-3 ovarian
SK-OV-3 ovarian = test system: SK-OV-3 ovarian
SR leukemia = test system: SR leukemia
EKVX NSCLC = test system: EKVX NSCLC
NCI-H23 lung = test system: NCI-H23 lung

Row | Compound | GI50 (786-0 renal) | TGI (786-0 renal) | GI50 (CCRF-CEM leukemia) [µM] | TGI (CCRF-CEM leukemia) | GI50 (HCT-15 colon) | TGI (HCT-15 colon) | GI50 (LOX IMVI melanoma) [µM] | TGI (LOX IMVI melanoma) | GI50 (NCI-H460 lung) [µM] | TGI (NCI-H460 lung) | GI50 (OVCAR-3 ovarian) | TGI (OVCAR-3 ovarian) | GI50 (SK-OV-3 ovarian) | TGI (SK-OV-3 ovarian) | GI50 (SR leukemia) [µM] | TGI (SR leukemia) [µM] | GI50 (EKVX NSCLC) [µM] | TGI (EKVX NSCLC) [µM] | GI50 (NCI-H23 lung) [µM] | TGI (NCI-H23 lung) [µM]
1 | COc1nc2c(cc1S(=O)(=O)c1ccccc1)CCc1c-2cnn1-c1ccccc1Cl | 7.28 µM | > 100 µM | 7.84 | > 100 µM | 6.24 µM | > 100 µM | > 100 | > 100 µM | 26.3 | > 100 µM | 8.17 µM | > 100 µM | > 100 µM | > 100 µM | 5.01 | > 100 |  |  |  | 
2 | CC1=C(CCCOC(=O)NCCCl)C2=C(C)C3(CC3)[C@@](C)(O)C(=O)C2=C1 | 2.71 µM | 8.16 µM | 9.4 | > 100 µM | 2.84 µM | > 100 µM | 3.13 | 19.8 µM | 2.42 | 13.6 µM | 2.95 µM | 9.9 µM | 2.35 µM | 6.46 µM |  |  | 3.45 | > 100 | 1.83 | 9.17
3 | O=C1CC[C@H]2CNC(=O)C[C@H]2C1 |  | > 100 µM |  | > 100 µM |  | > 100 µM |  | > 100 µM |  | > 100 µM |  | > 100 µM |  | > 100 µM |  |  |  | > 100 |  | > 100
4 | CC1=C[C@@H]2Cc3occc3C(C)(C)[C@@H]2CC1 |  | 34.1 µM |  | 35.6 µM |  |  |  | 33.6 µM |  |  |  | 31.5 µM |  | > 100 µM |  | 32.7 |  | 33 |  | 57.3
5 | CCC1CCC2CCCC(C)N12 (stereo not drawn) |  | > 100 µM |  | > 100 µM |  | > 100 µM |  |  |  |  |  | > 100 µM |  |  |  | > 100 |  | > 100 |  | > 100
6 | Cc1cccc2c3ccc4c(c3n(C)c12)C(=O)C=CC4=O |  | > 100 µM |  | 61.2 µM |  |  |  |  |  |  |  | > 100 µM |  | > 100 µM |  | > 100 |  | > 100 |  | 57.8
7 | C[C@]12CCC(=O)C=C1CC[C@@H]1C2CC[C@]2(C)NC(=O)C(C#N)CC12 (stereo partly drawn) |  | > 100 µM |  | > 100 µM |  | > 100 µM |  |  |  | > 100 µM |  | > 100 µM |  | > 100 µM |  |  |  |  |  | > 100
8 | CN(C)CCNC(=O)c1cccc2nc3c(Cl)cccc3nc12 |  | > 49.1 µM |  |  |  | 34.6 µM |  | 10.7 µM |  |  |  | > 63.6 µM |  | > 31.6 µM |  | > 100 |  | 32.9 |  | 20.8
9 | O=C(O)CCCc1ccc(N(CCCl)CCCl)cc1 | 7.67 µM and 35.7 µM | 28.4 µM and 181 µM and 133 µM | 0.881 | 34.2 µM and 170 µM and 18.6 µM | 29.6 µM and 117 µM | > 76.3 µM and 307 µM and 239 µM |  | 31.9 µM and 183 µM and 265 µM | 2.13 | 44.5 µM and 228 µM | 18.1 µM and 133 µM | 56.7 µM and 322 µM and 209 µM | 20.4 µM and 196 µM | 52 µM and 402 µM and 498 µM | 0.922 |  |  |  |  | 
10 | O=C(/C=C(\[O-])c1ccccc1)CCCCCCC(=O)/C=C(\[O-])c1ccccc1.O=C(/C=C(\[O-])c1ccccc1)CCCCCCC(=O)/C=C(\[O-])c1ccccc1.O=C(/C=C(\[O-])c1ccccc1)CCCCCCC(=O)/C=C(\[O-])c1ccccc1.[La+3].[La+3] | > 50 µM | > 50 µM |  |  | > 50 µM | > 50 µM | > 50 | > 50 µM | > 50 | > 50 µM |  |  | > 50 µM | > 50 µM |  |  | > 50 | > 50 | > 50 | > 50

Reference: PubChem BioAssay (NCI)
